In patent US7795315B2, “N-(2-amino-phenyl)-amide derivatives” (Hoffman-La Roche Inc., priority 2008, dated 2010):

Columns and labels:
Type in all cases: cell-based
[1] = system: p21 promoter-luciferase construct in HeLa cells; assay: p21 reporter gene induction; conditions: 3 micromolar, 15 hours, relative to SNDX-275
Description: (§1) The novel compounds of the present invention were tested for their ability to induce p21 gene expression using a reporter gene assay involving HeLa cells transfected with a p21 promoter-luciferase construct. The p21 promoter contained the Sp1/Sp3 binding site for HDAC but not the upstream p53 binding site. Briefly, the day before transfection, HeLa cells were seeded at 11,000 cells/well in a 96-well culture plate and incubated at 37 degrees Celsius in 5% CO2 overnight. For transfection, the medium was removed and replaced with 100 microliters/well transfection media previously prepared as follows: 5 microliters serum-free DMEM, 0.15 microliters Fugene 6 reagent, 40 ng p21-luc, 10 ng GFP were mixed gently and incubated at room temperature for 30 minutes; then 98 microliters DMEM (with 10% FBS, 1% penicillin and streptomycin) was added to the DNA:Fugene 6 reagent complex and mixed gently. After incubating the cells for 24 hours at 37 degrees Celsius in 5% CO2, fresh media and test compounds were added to the wells and the cells further incubated for 15 hours at 37 degrees Celsius in 5% CO2. Cells were lysed by adding 80 microliters/well of a cell culture lysis reagent (Promega). 50 microliters of each lysate was taken for GFP detection using an excitation wavelength of 486 nm and detection at 527 nm. 100 microliters Luciferase assay reagent (Promega) was then added to every 20 microliters cell lysate for luminometer detection. […] Induction activity for specific representative compounds can be found in Table 4.

[2] = system: klf2 promoter-luciferase construct in A204 cells; assay: klf2 reporter gene induction (p21 versus klf2 selectivity); conditions: SNDX-275 p21/klf2 ratio defined as 1.0; for p21/klf2 (RP3): relative selectivity compared with SNDX-275: 3 micromolar; for p21/klf2 (RP10): relative selectivity compared with SNDX-275: 10 micromolar
Description: as §1
The novel compounds of the present invention were tested for their ability to induce klf2 gene expression using a reporter gene assay involving A204 cells transfected with a klf2 promoter-luciferase construct. The klf2 promoter contained the MEF2 binding site for HDAC3/class IIa HDAC complex. Briefly, the day before transfection, A204 cells were seeded at 11,000 cells/well in a 96-well culture plate and incubated at 37 degrees Celsius in 5% CO2 overnight. For transfection, the medium was removed and replaced with 100 microliters/well transfection media previously prepared as follows: 5 microliters serum-free DMEM, 0.15 microliters Fugene 6 reagent, 40 ng klf2-luc, 10 ng GFP were mixed gently and incubated at room temperature for 30 minutes; then 98 microliters DMEM (with 10% FBS, 1% penicillin and streptomycin) was added to the DNA:Fugene 6 reagent complex and mixed gently. After incubating the cells for 24 hours at 37 degrees Celsius in 5% CO2, fresh media and test compounds were added to the wells and the cells further incubated for 15 hours at 37 degrees Celsius in 5% CO2. Finally, 10 ng/ml TNF-α was added and the cells further incubated for 4 hours. Cells were lysed by adding 80 microliters/well of a cell culture lysis reagent (Promega). 50 microliters of each lysate was taken for GFP detection using an excitation wavelength of 486 nm and detection at 527 nm. 100 microliters Luciferase assay reagent (Promega) was then added to every 20 microliters cell lysate for luminometer detection.

[3] = system: HCT-116 colon cancer cells; assay: Antiproliferative activity, growth inhibition (MTS/WST assay); conditions: Homo sapiens, 72 hour growth inhibition, read-out: GI50 HCT116
Description: The novel compounds of the present invention were tested for their ability to inhibit growth of various cancer cell lines (HeLa, MCF7, U2OS, HepG2, HL60, HCT-116) using in vitro growth inhibition assays described below.
Cells were seeded in 96-well culture plates (200 microliters/well at different seeding concentrations depending on cell type) and incubated overnight at 37 degrees Celsius in 5% CO2. After adding compound dilutions to the cells (DMSO concentration kept below 0.5%), the cells were incubated at 37 degrees Celsius in 5% CO2 for 72 hours. The effects on proliferation were determined by addition of MTS reagent (Promega) according to the manufacturer's instruction, followed by incubation for 2 hours at 37 degrees Celsius in 5% CO2, and finally recording the absorbance at 490 nm using an ELISA plate reader.
Similar to MTS assay except that the developer is the CCK-8 reagent (Dojindo) and the plate reader is set to 450 nm absorbance.
GI50 values against HCT-116 colon cancer cells for specific representative compounds can be found in Table 4.

GI50 [3]	Structure (SMILES)	p21 (RP3): relative induction potency compared with SNDX-275 [1]	p21/klf2 (RP3): relative selectivity compared with SNDX-275 [2]	p21/klf2 (RP10): relative selectivity compared with SNDX-275 [2]
1800 nM	C[C@@H]1CN(CCNC(C(=O)Nc2ccc(C(F)(F)F)cc2)c2ccc(/C=C/C(=O)Nc3ccccc3N)cc2)C[C@H](C)O1 (stereo partly drawn) [Example 9-28, (E)-N-(2-Amino-phenyl)-3-{4-[[2-((2R,6S)-2,6-dimethyl-morpholin-4-yl)-ethylamino]-(4-trifluoromethyl-phenylcarbamoyl)-methyl]-phenyl}-acrylamide]	33%	0.5	0.9
7100 nM	Nc1ccccc1NC(=O)/C=C/c1ccc(C(C(=O)Nc2ccc(C(F)(F)F)cc2)N2CCCCC2)cc1 (stereo not drawn) [Example 9-29, (E)-N-(2-Amino-phenyl)-3-{4-[piperidin-1-yl-(4-trifluoromethyl-phenylcarbamoyl)-methyl]-phenyl}-acrylamide]	10%	0.3	0.5
2200 nM	Nc1ccccc1NC(=O)/C=C/c1ccc(C(OCCN2CCOCC2)C(=O)Nc2ccc(C(F)(F)F)cc2)cc1 (stereo not drawn) [Example 19, (E)-N-(2-Amino-phenyl)-3-{4-[(2-morpholin-4-yl-ethoxy)-(4-trifluoromethyl-phenylcarbamoyl)-methyl]-phenyl}-acrylamide]	98%	1.6	3.6
800 nM	Nc1ccccc1NC(=O)/C=C/c1ccc(C(NCCN2CCOCC2)C(=O)Nc2ccc(C(F)(F)F)cc2)cc1 (stereo not drawn) [Example 30, (E)-N-(2-Amino-phenyl)-3-{4-[(2-morpholin-4-yl-ethylamino)-(4-trifluoromethyl-phenylcarbamoyl)-methyl]-phenyl}-acrylamide]	100%	1.3	3.9
900 nM	Nc1ccccc1NC(=O)/C=C/c1ccc(C(NCCN2CCOCC2)C(=O)Nc2ccc(Cl)cc2)cc1 (stereo not drawn) [Example 30-33, (E)-N-(2-Amino-phenyl)-3-{4-[(4-chloro-phenylcarbamoyl)-(2-morpholin-4-yl-ethylamino)-methyl]-phenyl}-acrylamide]	193%	2.1	1.2
1000 nM	Cc1ccc(NC(=O)C(NCCN2CCOCC2)c2ccc(/C=C/C(=O)Nc3ccccc3N)cc2)cc1 (stereo not drawn) [Example 30-54, (E)-N-(2-Amino-phenyl)-3-{4-[(2-morpholin-4-yl-ethylamino)-p-tolylcarbamoyl-methyl]-phenyl}-acrylamide]	183%	2.0	1.3
